Reference: patent US12291532B2, “Substituted xanthines as modulators of TRPC5 activity” (Boehringer Ingelheim International GmbH, priority 2018, dated 2025)

These compounds were tested against T1, TRPC5 (Homo sapiens, UniProt Q9UL62) (assay: Assay A: Determination of TRPC5-Inhibition (whole-cell patch clamp)). Conditions: compounds of the present invention, TRPC5-expressing HEK293 TREx cells, current activated by LaCl3.
T1 construct: expressed in transfected cells; host or cells: HEK293 TREx (inducible expression, induced 20-48 hours)
T1 sequence (Q9UL62 1-973): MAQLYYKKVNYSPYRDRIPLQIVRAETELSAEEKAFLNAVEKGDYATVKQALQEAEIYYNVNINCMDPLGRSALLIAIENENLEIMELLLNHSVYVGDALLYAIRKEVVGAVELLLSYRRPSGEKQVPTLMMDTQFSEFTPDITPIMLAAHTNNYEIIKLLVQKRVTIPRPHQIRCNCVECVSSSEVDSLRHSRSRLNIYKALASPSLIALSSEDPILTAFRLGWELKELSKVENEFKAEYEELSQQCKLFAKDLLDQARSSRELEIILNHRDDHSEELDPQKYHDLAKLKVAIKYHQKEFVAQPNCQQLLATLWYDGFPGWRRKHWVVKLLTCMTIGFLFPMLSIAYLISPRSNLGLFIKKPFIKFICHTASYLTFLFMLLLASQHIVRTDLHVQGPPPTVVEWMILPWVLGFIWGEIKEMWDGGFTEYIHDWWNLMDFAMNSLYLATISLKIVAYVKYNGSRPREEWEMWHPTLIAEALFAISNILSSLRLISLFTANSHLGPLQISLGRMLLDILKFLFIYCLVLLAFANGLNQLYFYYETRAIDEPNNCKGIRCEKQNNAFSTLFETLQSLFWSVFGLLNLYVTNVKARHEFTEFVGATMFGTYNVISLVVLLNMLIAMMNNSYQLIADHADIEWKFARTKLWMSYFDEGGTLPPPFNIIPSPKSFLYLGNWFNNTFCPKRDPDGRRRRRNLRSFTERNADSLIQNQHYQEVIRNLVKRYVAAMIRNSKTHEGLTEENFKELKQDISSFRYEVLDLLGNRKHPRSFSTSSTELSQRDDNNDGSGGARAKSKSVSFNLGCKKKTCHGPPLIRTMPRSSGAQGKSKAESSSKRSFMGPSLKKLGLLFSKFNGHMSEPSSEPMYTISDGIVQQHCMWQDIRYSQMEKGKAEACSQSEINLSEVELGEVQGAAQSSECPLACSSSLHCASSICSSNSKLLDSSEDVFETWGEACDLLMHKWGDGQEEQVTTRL
Format: cell-based
From the text: Assay A: Determination of TRPC5-Inhibition
Patch clamp experiments permit the detection of currents through the TRPC5 channel in a cell line. In normal whole-cell patch clamp recordings, a glass electrode is brought into contact with a single cell and a high-resistance (gigaohm) seal is established with the cell membrane. The membrane is then ruptured to achieve the whole-cell configuration, permitting control of the voltage of the cell membrane and measurement of currents flowing across the membrane using the amplifier attached to the electrode and resulting in the replacement of cytoplasm with the pipette solution. A perfusion system permits control of the extracellular solution, including the addition of blockers and activators of the current. The current can be activated by including 1.4 μM free Ca2+ in the pipette (intracellular) solution, and 80 μM LaCl3 in the extracellular solution.
TRPC5 cells were induced 20-48 hours, removed from growth plates, and replated at low density (to attain good single-cell physical separation) on glass coverslips for measurement. In some cases, cells were grown in low density overnight on glass coverslips. Patch clamp recordings were made in the whole-cell mode with a holding potential of −40 mV. Every 5 seconds, a voltage ramp was applied from −120 to +100 mV, 400 ms in duration. Currents elicited were quantified at −80 mV and +80 mV. The internal solution consisted of 140 mM cesium aspartate, 10 mM HEDTA, 2 mM CaCl2, 2.27 mM MgCl2 and 10 mM HEPES, pH 7.2, with 1,400 nM calculated free Ca2+. The external solution consisted of 150 mM NaCl, 4.5 mM 15 KCl, 1 mM MgCl2, 2 mM CaCl2, 10 mM HEPES, 10 mM glucose, 1 mM EGTA, pH 7.4. Upon addition of LaCl3, TRPC5 current was induced only in TRPC5-expressing cells and not in parental HEK293 TREx cells. Removal of the LaCh stimulus causes most of the current to go away. Potential blockers were tested for ability to block both inward and outward currents in the continued presence of LaCl3.
IC50 of a compound of the invention was estimated by testing the compound 500 nM. […] Compounds blocking 50% or more at 500 nM are retested at multiple concentrations, and the % block is fitted by standard equations to determine […] accurately, using a […] concentration-response experiment.

IC50 [nM] | SMILES
0.172 | CCn1c(=O)n(CCCO)c(=O)c2c1nc(-c1ncc(OC3CCC3C)nc1C)n2Cc1ccc(Cl)cc1 (stereo not drawn) [Example 1]
0.207 | Cc1nc(OC2CCC2)cnc1-c1nc2c(c(=O)n(CCCO)c(=O)n2C(C)C)n1Cc1ccccc1 [Example 2]
0.506 | CCn1c(=O)n(CCCO)c(=O)c2c1nc(-c1cnc(OC3CCC3)cn1)n2Cc1ccc(F)cc1 [Example 3]
1.11 | CCn1c(=O)n(CCCO)c(=O)c2c1nc(-c1cnc(OC3CCC3)cn1)n2Cc1ccccc1 [Example 4]
0.29 | CCn1c(=O)n(CCCO)c(=O)c2c1nc(-c1ncc(OC3CCC3C)nc1C)n2Cc1ccc(F)cc1 (stereo not drawn) [Example 5]
1.22 | CCn1c(=O)n(CCCO)c(=O)c2c1nc(-c1ncc(OC3CCC3)nc1C)n2Cc1ccccc1 [Example 6]
